# Legend:
# [1] = target: T1, STAT3-exportin 7 interaction (Homo sapiens, UniProt Q9UIA9); assay: Immunoprecipitation from HCT116 tumor homogenates, STAT3-exportin 7 interaction; format: binding; settings: homogenates of HCT116 tumors from treated mice, Western blotting
# T1 construct: homogenates prepared from HCT116 colon tumors from mice treated with PO- and PS-acet.-STAT3 peptides; from tissue; host or cells: HCT116 xenograft tumours grown in NSG mice
# Protocol: Whole cell lysates or tissue homogenates were prepared by using RIPA lysis buffer (50 mM Tris at pH 7.4, 150 mM NaCl, 1 mM EDTA, 0.5% NP-40, 1 mM NaF, 15% glycerol, and 20 mM β-glycerophosphate). A protease inhibitor cocktail (Mini Protease Inhibitor Cocktail; Roche) and a tyrosine phosphatase inhibitor, sodium orthovanadate (Na3VO4, 1 mM), were added freshly to the lysis buffer. Protein amounts were determined by BCA using a Thermo Fisher Scientific kit. Normalized protein amounts were subjected to an SDS-PAGE and transferred onto a nitrocellulose membrane for Western blotting. Proteins were visualized with a chemiluminescent detection kit (Pierce, Thermo Fisher Scientific). The protein levels for STAT1 (sc-346, E-23), STAT3 (sc-482, C-20), STAT5 (sc-74442, A-9), Crm1 (exportin 1) (sc-5595, H-300), CAS (exportin 2) (sc-271537, H-2), exportin 5 (sc-66885, H-300), and exportin 7 (sc-98639, H-82) were determined using antibodies from Santa Cruz Biotechnology Inc. Anti–exportin 3 (exportin T, 630622, LOS1 05-1525), anti–exportin 4 (3499-1), and anti–exportin 6 (11408-1-AP) were from MilliporeSigma, Epitomics, and Proteintech, respectively. […]
# (B) PS-acet.-STAT3 peptide downregulates STAT3 phosphorylation, assessed by Western blotting using tumor homogenates prepared from tumors shown in A. […]
# [2] = target: T2, STAT1 (Homo sapiens, UniProt P42224); assay: Immunoprecipitation and Western blotting, STAT1; format: binding; settings: immunoprecipitation, Western blotting, U251 cells
# T2 construct: endogenous in cells; host or cells: U251
# Text: Figure 2 PS-acet.-STAT3-peptide specifically binds STAT3 in the nucleus. (A) Penetration of PS-acet.-STAT3 peptide and its colocalization with STAT3 protein in U251 cells are confirmed by confocal microscopy. Scale bars: 50 μm. Insets: original magnification, ×40. (B) PS-acet.-STAT3 peptide specifically binds to STAT3 protein, not STAT1 and STAT5 proteins, shown in U251 cells by immunoprecipitation followed by Western blotting (left panel). Expression of total STAT1, STAT3, and STAT5 was confirmed by Western blotting in U251 cells (input protein level, right panel).
# Whole cell lysates or tissue homogenates were prepared by using RIPA lysis buffer (50 mM Tris at pH 7.4, 150 mM NaCl, 1 mM EDTA, 0.5% NP-40, 1 mM NaF, 15% glycerol, and 20 mM β-glycerophosphate). […] Protein amounts were determined by BCA using a Thermo Fisher Scientific kit. […] The protein levels for STAT1 (sc-346, E-23), STAT3 (sc-482, C-20), STAT5 (sc-74442, A-9), Crm1 (exportin 1) (sc-5595, H-300), CAS (exportin 2) (sc-271537, H-2), exportin 5 (sc-66885, H-300), and exportin 7 (sc-98639, H-82) were determined using antibodies from Santa Cruz Biotechnology Inc. Anti–exportin 3 (exportin T, 630622, LOS1 05-1525), anti–exportin 4 (3499-1), and anti–exportin 6 (11408-1-AP) were from MilliporeSigma, Epitomics, and Proteintech, respectively. […]
# [3] = system: p53 promoter; assay: Luciferase reporter gene assay, p53 promoter; format: cell-based, human; settings: HCT116, 1 μM, overnight at 37°C
# Text: Figure 3 PS-acet.-STAT3 peptide inhibits STAT3 activity and downregulates the expression of STAT3 targets. (A) Downregulation of STAT3 activity and its downstream target proteins shown in human HCT116 colorectal cancer cells by Western blotting (data represent 1 of the 3 experiments, n = 3). PO-acet.-STAT3 and PS-STAT3-K685R peptides were used in parallel as controls. (B) STAT3 inhibition regulated the expression of proliferation and apoptotic genes, assessed by real-time quantitative PCR. Data present mean ± SD, n = 3 independent experiments, 1-way ANOVA; ***P < 0.005; **P < 0.01. […] For p53 promoter assay, data represent 3 replicates in 3 independent experiments (n = 9). For cell proliferation assay, data represent 3 independent experiments. SD is shown (n = 3). One-way ANOVA; ***P < 0.005; **P < 0.01.
# A total of 1–2 × 10^6 HCT116 cells were seeded into each well of a 24-well plate (Cellstar) and transfected with a 13x RGC plasmid, with a Renilla luciferase construct (both plasmids provided by Bernhard Lüscher, RWTH, Aachen, Germany), using Lipofectamine 2000 (Invitrogen, Thermo Fisher Scientific), according to manufacturer’s instruction. On the following day, cells were treated with 1 μM of PO- and PS-acet.-STAT3 peptides at 37°C overnight. Luciferase activities were determined using the luciferase assay system (Promega).
# T1 sequence (Q9UIA9 2-1087 limits assumed): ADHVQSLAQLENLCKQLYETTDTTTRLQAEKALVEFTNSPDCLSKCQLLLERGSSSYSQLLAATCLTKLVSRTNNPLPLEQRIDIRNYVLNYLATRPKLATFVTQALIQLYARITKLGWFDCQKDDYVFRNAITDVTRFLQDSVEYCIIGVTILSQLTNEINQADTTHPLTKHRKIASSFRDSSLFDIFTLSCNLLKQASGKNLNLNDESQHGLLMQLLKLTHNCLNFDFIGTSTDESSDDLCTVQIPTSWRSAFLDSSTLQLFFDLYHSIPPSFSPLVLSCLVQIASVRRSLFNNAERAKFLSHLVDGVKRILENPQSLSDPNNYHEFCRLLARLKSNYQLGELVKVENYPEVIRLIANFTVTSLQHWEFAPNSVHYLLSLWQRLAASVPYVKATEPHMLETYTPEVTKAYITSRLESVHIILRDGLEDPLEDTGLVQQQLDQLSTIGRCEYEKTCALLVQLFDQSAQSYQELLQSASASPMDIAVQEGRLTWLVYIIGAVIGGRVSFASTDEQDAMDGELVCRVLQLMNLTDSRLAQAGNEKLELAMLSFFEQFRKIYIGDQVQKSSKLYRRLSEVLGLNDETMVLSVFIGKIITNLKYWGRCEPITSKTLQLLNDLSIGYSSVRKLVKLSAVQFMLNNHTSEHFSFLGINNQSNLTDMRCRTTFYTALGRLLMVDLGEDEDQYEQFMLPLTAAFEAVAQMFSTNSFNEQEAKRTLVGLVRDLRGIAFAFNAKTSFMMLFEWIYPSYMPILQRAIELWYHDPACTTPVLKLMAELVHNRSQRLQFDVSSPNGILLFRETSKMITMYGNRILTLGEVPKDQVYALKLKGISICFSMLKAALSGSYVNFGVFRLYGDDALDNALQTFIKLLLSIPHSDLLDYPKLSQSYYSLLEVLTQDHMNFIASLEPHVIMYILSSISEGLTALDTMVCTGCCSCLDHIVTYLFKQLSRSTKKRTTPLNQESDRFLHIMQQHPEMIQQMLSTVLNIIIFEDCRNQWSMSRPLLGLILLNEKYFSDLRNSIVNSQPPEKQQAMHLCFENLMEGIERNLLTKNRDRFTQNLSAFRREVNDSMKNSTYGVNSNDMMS
# T2 sequence (P42224 whole entry): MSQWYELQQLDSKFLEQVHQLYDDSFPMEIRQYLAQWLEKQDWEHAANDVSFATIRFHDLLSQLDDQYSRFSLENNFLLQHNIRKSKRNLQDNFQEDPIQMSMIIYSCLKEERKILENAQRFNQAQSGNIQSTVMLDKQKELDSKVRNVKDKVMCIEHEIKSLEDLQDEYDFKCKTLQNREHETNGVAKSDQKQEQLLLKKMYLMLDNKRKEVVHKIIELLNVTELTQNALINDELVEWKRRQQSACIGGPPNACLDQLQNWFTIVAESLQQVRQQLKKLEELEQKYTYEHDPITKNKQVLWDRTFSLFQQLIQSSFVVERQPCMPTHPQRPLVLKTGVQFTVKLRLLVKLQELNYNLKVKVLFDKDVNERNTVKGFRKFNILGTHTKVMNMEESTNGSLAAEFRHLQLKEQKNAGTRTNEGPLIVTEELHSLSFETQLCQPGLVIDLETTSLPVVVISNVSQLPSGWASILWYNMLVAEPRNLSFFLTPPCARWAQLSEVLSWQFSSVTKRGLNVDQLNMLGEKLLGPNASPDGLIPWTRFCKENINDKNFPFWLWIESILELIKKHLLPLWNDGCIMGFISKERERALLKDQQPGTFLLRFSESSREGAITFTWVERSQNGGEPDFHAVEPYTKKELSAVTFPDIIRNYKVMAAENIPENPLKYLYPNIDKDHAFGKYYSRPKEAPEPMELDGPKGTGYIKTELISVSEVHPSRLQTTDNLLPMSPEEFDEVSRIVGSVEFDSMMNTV
substance,measurement,setting,value
PDIPKEEAFGK685(Ac)YCRPESQEHPC-linker-T*C*C*A*T*G*A*G*C*T*T*C*C*T*G*A*T*G*C*T [PS-acet.-STAT3 peptide],STAT3 binding to exportin 7 in tumor tissues,[1],blocked
same,binding to exportin 7 in tumor tissues,[1],bound
same,binding to STAT1 protein,[2],not
same,p53 promoter activity,[3],significant increase

# From paper PMC7934871 (JCI Insight, 2021)
